Results on nine compounds are retold here after patent US9725445B2, “Cycloalkyl nitrile pyrazolo pyridones as Janus kinase inhibitors” (Merck Sharp & Dohme Corp., priority 2013, dated 2017).

SMILES strings stand for the structures.

In one test the target is JAK1 (Homo sapiens (Human), UniProt P23458). Description: Jak biochemical HTRF assay, JAK1. Conditions: HTRF biochemical assay, recombinant GST-tagged catalytic domain; read-out: JAK1 IC50.
In another test the target is JAK2 (Homo sapiens (Human), UniProt O60674). Description: Jak biochemical HTRF assay, JAK2. Conditions: HTRF biochemical assay, recombinant GST-tagged catalytic domain; read-out: JAK2 IC50.
JAK2, sequence (O60674 849-1124): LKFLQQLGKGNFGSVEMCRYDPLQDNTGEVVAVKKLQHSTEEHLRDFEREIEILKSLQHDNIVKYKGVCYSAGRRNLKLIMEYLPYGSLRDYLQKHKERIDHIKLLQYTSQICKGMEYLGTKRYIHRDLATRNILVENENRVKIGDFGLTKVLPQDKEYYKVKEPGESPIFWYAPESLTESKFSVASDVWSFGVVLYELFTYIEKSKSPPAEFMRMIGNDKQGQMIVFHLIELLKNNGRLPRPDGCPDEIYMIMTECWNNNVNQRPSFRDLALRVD

JAK1, sequence (P23458 875-1153): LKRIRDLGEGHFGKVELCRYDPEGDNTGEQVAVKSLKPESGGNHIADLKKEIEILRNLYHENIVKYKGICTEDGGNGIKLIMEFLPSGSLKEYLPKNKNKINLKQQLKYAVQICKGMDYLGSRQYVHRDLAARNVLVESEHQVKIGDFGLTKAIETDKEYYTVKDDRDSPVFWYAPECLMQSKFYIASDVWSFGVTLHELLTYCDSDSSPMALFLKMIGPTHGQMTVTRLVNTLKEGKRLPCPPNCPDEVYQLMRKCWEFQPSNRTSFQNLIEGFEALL

As to `Cn1cc(-c2ccc(Nc3nn([C@H]4CCCC[C@@H]4C#N)c4cc[nH]c(=O)c34)cc2Cl)cn1` [Example 3-146, (1S,2S)-2-(3-{[3-chloro-4-(1-methyl-1H-pyrazol-4-yl)phenyl]amino}-4-oxo-4,5-dihydro-1H-pyrazolo[4,3-c]pyridin-1-yl)cyclohexanecarbonitrile], the results for the IC50 on JAK1 and on JAK2 were 0.29 nM and 6.4 nM, respectively.

For `CC(C)(c1ccc(Nc2nn([C@H]3CCCC[C@@H]3C#N)c3cc[nH]c(=O)c23)cc1)n1ccnn1` [Example 3-147, (1S,2S)-2-[3-({4-[1-methyl-1-(1H-1,2,3-triazol-1-yl)ethyl]phenyl}amino)-4-oxo-4,5-dihydro-1H-pyrazolo[4,3-c]pyridin-1-yl]cyclohexanecarbonitrile], the values for the IC50 on JAK1 and on JAK2 were 0.17 nM and 0.5 nM, respectively.

Consider `CC(C)[C@H](C)N1Cc2ccc(Nc3nn([C@H]4CCCC[C@@H]4C#N)c4cc[nH]c(=O)c34)cc2C1` [Example 3-148, (1S,2S)-2-[3-({2-[(1S)-1,2-dimethylpropyl]-2,3-dihydro-1H-isoindol-5-yl}amino)-4-oxo-4,5-dihydro-1H-pyrazolo[4,3-c]pyridin-1-yl]cyclohexanecarbonitrile], for which the values for the IC50 on JAK1 and at JAK2 were 0.31 nM and 0.43 nM, respectively.

Consider `CC(C)[C@@H](C)N1Cc2ccc(Nc3nn([C@H]4CCCC[C@@H]4C#N)c4cc[nH]c(=O)c34)cc2C1` [Example 3-149, (1S,2S)-2-[3-({2-[(1R)-1,2-dimethylpropyl]-2,3-dihydro-1H-isoindol-5-yl}amino)-4-oxo-4,5-dihydro-1H-pyrazolo[4,3-c]pyridin-1-yl]cyclohexanecarbonitrile], for which the figures for the IC50 at JAK1 and at JAK2 were 0.48 nM and 0.61 nM, respectively.

Regarding `CC(C)(C)OC(=O)CCN1Cc2cc(Nc3nn([C@H]4CCCC[C@@H]4C#N)c4cc[nH]c(=O)c34)ccc2S1(=O)=O` [Example 3-150, tert-butyl 3-[5-({1-[(1S,2S)-2-cyanocyclohexyl]-4-oxo-4,5-dihydro-1H-pyrazolo[4,3-c]pyridin-3-yl}amino)-1,1-dioxido-1,2-benzisothiazol-2(3H)-yl]propanoate], the IC50 (as a rule, the concentration that inhibits the measured activity by half) stood at 0.066 nM on JAK1 and 0.55 nM on JAK2.

As to `CC(C)(C)OC(=O)CN1Cc2cc(Nc3nn([C@H]4CCCC[C@@H]4C#N)c4cc[nH]c(=O)c34)ccc2S1(=O)=O` [Example 3-151, tert-butyl [5-({1-[(1S,2S)-2-cyanocyclohexyl]-4-oxo-4,5-dihydro-1H-pyrazolo[4,3-c]pyridin-3-yl}amino)-1,1-dioxido-1,2-benzisothiazol-2(3H)-yl]acetate], the IC50 was 0.041 nM at JAK1 and 0.52 nM at JAK2.

Consider `CC(C)(C)OC(=O)C(C)(C)N1Cc2cc(Nc3nn([C@H]4CCCC[C@@H]4C#N)c4cc[nH]c(=O)c34)ccc2S1(=O)=O` [Example 3-152, tert-butyl 2-[5-({1-[(1S,2S)-2-cyanocyclohexyl]-4-oxo-4,5-dihydro-1H-pyrazolo[4,3-c]pyridin-3-yl}amino)-1,1-dioxido-1,2-benzisothiazol-2(3H)-yl]-2-methylpropanoate], for which the IC50 at JAK1 was found to be 0.1 nM; on JAK2, 0.77 nM.

For the compound `N#C[C@H]1CCCC[C@@H]1n1nc(Nc2ccc3c(c2)CN(C2CCCC2)C3=O)c2c(=O)[nH]ccc21` [Example 3-154, (1S,2S)-2-{3-[(2-cyclopentyl-1-oxo-2,3-dihydro-1H-isoindol-5-yl)amino]-4-oxo-4,5-dihydro-1H-pyrazolo[4,3-c]pyridin-1-yl}cyclohexanecarbonitrile], the IC50 worked out at 0.056 nM on JAK1 and 0.45 nM at JAK2.

As for `CC(C)(C)OC(=O)CC(C)(C)N1Cc2cc(Nc3nn([C@H]4CCCC[C@@H]4C#N)c4cc[nH]c(=O)c34)ccc2S1(=O)=O` [Example 3-155, tert-butyl 3-[5-({1-[(1S,2S)-2-cyanocyclohexyl]-4-oxo-4,5-dihydro-1H-pyrazolo[4,3-c]pyridin-3-yl}amino)-1,1-dioxido-1,2-benzisothiazol-2(3H)-yl]-3-methylbutanoate], the IC50 on JAK1 stood at 0.12 nM; on JAK2, 0.71 nM.
